The results in this text go back to ChEMBL document CHEMBL3352341, “Design, synthesis and biological characterization of thiazolidin-4-one derivatives as promising inhibitors of Toxoplasma gondii” (Eur J Med Chem, 2014).

The test system of data set [1] is Toxoplasma gondii. Kind of data set: Antiparasitic activity against Toxoplasma gondii infected in human foreskin fibroblasts assessed as tachyzoite growth inhibition after 5 days by colorimetric assay. The settings on record: 120 h. It is filed as functional, organism-based.
Data set [2] can be described thus: Cytotoxicity against human foreskin fibroblasts after 5 days by colorimetric assay. The data set is classed as cell-based. Particulars: human foreskin fibroblasts (HFF cells), read-out: TD50.
Data set [3] deals with Toxoplasma gondii. Kind of data set: Antiparasitic activity against Toxoplasma gondii infected in human foreskin fibroblasts assessed as inhibition of invasion compound pretreated at 10 uM for 20 mins before infection after 1 hr by fluorescence assay. It is filed as functional, organism-based.
The subject of data set [4] is Toxoplasma gondii. Kind of data set: Antiparasitic activity against Toxoplasma gondii infected in human foreskin fibroblasts assessed as inhibition of attachment compound pretreated at 10 uM for 20 mins before infection after 1 hr by fluorescence assay. The data set is classed as functional, organism-based.
In data set [5] the test system is Toxoplasma gondii. Kind of data set: Antiparasitic activity against Toxoplasma gondii infected in human foreskin fibroblasts assessed as inhibition of replication measured as decrease in the number of tachyzoites in vacuole at 10 uM after 24 hrs by fluorescence assay. The data set is classed as functional, organism-based.
Data set [6] in a line: Therapeutic index, ratio of TD50 for human foreskin fibroblasts to IC50 for Toxoplasma gondii infected in human foreskin fibroblasts. The settings on record: read-out: TI.
For data set [7], the system named is Toxoplasma gondii. Kind of data set: Antiparasitic activity against Toxoplasma gondii infected in human foreskin fibroblasts assessed as inhibition of replication measured as recovery at 10 uM for 24 hrs followed by washout measured after 96 hrs by fluorescence assay. It is filed as functional, organism-based.
Data set [8] deals with Toxoplasma gondii. The experiment in a line: Antiparasitic activity against Toxoplasma gondii infected in human foreskin fibroblasts assessed as inhibition of tachyzoite replication compound pretreated at 10 uM for 24 hrs before infection by fluorescence assay. It is filed as functional, organism-based.

Molecules are shown by their SMILES. Active and inactive are the calls of the source.

By IC50 is commonly meant the midpoint of a concentration-inhibition curve. For orientation: IC90 means the concentration at which the effect reaches the 90% level.

For `CC1CC/C(=N/N=C2\NC(=O)CS2)C1` (stereo unspecified), the IC50 in the data set with Toxoplasma gondii [1] turned out to be 24 µM. Besides, the IC90 in the data set with Toxoplasma gondii [1] stood at 154 µM. In addition, in data set [2], the CC50 at 120 h was not below 320 µM. Also, the inhibition entry in the data set on Toxoplasma gondii [3], in the data set on Toxoplasma gondii [4] and in the data set on Toxoplasma gondii [5] was “Active” each time. Moreover, the selectivity ratio in data set [6] turned out to be 23.
Take `C/C(CC(C)C)=N/N=C1\NC(=O)CS1`: the IC50 in the data set on Toxoplasma gondii [1] came out at 23 µM. Moreover, the IC90 in the data set on Toxoplasma gondii [1] turned out to be 126 µM. Besides, the CC50 at 120 h in data set [2] amounted to 290 µM. Besides, the inhibition entry with Toxoplasma gondii [3], in the data set on Toxoplasma gondii [4] and with Toxoplasma gondii [5] was “Active” each time. The selectivity ratio in data set [6] stood at 13.
For `O=C1CSC(NN=C2CCCCC2)=N1`, the IC50 in the data set with Toxoplasma gondii [1] amounted to 28 µM. Moreover, in the data set on Toxoplasma gondii [1], the IC90 was determined as 278 µM. Moreover, in data set [2], the CC50 at 120 h is not below 320 µM. Besides, the inhibition result in the data set on Toxoplasma gondii [3], with Toxoplasma gondii [4] and in the data set on Toxoplasma gondii [5] was “Active” each time. In addition, in data set [6], the selectivity ratio was 20.
Consider `O=C1CS/C(=N/N=C\c2ccncc2)N1`, for which the IC50 in the data set on Toxoplasma gondii [1] turned out to be 20 µM. Further, the IC90 in the data set with Toxoplasma gondii [1] came out at 129 µM. Further, the CC50 at 120 h in data set [2] was not below 320 µM. The inhibition entry with Toxoplasma gondii [3], in the data set with Toxoplasma gondii [4] and in the data set on Toxoplasma gondii [5] was “Active” throughout. For the same compound, the selectivity ratio in data set [6] turned out to be 28.
As to `O=C1CSC(NN=C2CCCC2)=N1`, the IC50 in the data set with Toxoplasma gondii [1] was determined as 27 µM. Moreover, in the data set with Toxoplasma gondii [1], the 90% effect concentration (IC90) was determined as 175 µM. In data set [2], the CC50 at 120 h is not below 320 µM. The inhibition result in the data set with Toxoplasma gondii [3], in the data set on Toxoplasma gondii [4] and in the data set on Toxoplasma gondii [5] was “Active” in each case. Also, the selectivity ratio in data set [6] was 21.
For `CCCCCC/C(C)=N\N=C1/NC(=O)CS1`, in the data set with Toxoplasma gondii [1], the half-maximal inhibitory concentration (IC50) came out at 31 µM. In addition, the IC90 with Toxoplasma gondii [1] was 188 µM. Moreover, the CC50 at 120 h in data set [2] was not below 320 µM. Also, the inhibition result in the data set on Toxoplasma gondii [3], in the data set with Toxoplasma gondii [4] and in the data set with Toxoplasma gondii [5] was “Active” in each case. The selectivity ratio in data set [6] is 18.
As to `CC1CCC(=N/N=C2\NC(=O)CS2)CC1` (stereo unspecified), in the data set on Toxoplasma gondii [1], the IC50 was 226 µM and the IC90 turned out to be 777 µM. For the same compound, in data set [2], the CC50 at 120 h is not below 320 µM. In addition, in the data set on Toxoplasma gondii [5], the inhibition result was “Active”. In addition, the selectivity ratio in data set [6] worked out at 2.
On the same counts, the results for `CC1CCC/C1=N/N=C1/SCC(=O)N1Cc1ccccc1` (stereo unspecified) are 53 µM, 329 µM, not below 320 µM, “Active” and 11.
On the same counts, the results for `CC1CCC/C(=N/N=C2/SCC(=O)N2Cc2ccccc2)C1` (stereo unspecified) are 58 µM, 248 µM, 95 µM, “Active” and 2.
`O=C1CS/C(=N/N=C\c2cccc3ccccc23)N1`: the IC50 with Toxoplasma gondii [1] was determined as 3.9 µM. For the same compound, the IC90 in the data set on Toxoplasma gondii [1] is 31 µM. The CC50 at 120 h in data set [2] was not below 320 µM. For the same compound, the inhibition entry with Toxoplasma gondii [3], in the data set on Toxoplasma gondii [4] and with Toxoplasma gondii [5] was “Active” in each case. Besides, the inhibition entry in the data set with Toxoplasma gondii [7] is “inactive”. In addition, in data set [6], the selectivity ratio was 144.
With `C/C(=N/N=C1/SCC(=O)N1Cc1ccccc1)c1cccs1`, the IC50 with Toxoplasma gondii [1] was found to be 37 µM. Besides, in the data set on Toxoplasma gondii [1], the IC90 stood at 84 µM. Besides, the CC50 at 120 h in data set [2] was not below 320 µM. Also, the inhibition result in the data set on Toxoplasma gondii [3], with Toxoplasma gondii [4] and in the data set with Toxoplasma gondii [5] was “Active” in each case. In data set [6], the selectivity ratio was determined as 15.
Regarding `O=C1CS/C(=N/N=C\c2cccc3ccccc23)N1Cc1ccccc1`, in the data set on Toxoplasma gondii [1], the IC50 was 38 µM and the IC90 turned out to be 79 µM. For the same compound, the CC50 at 120 h in data set [2] was not below 320 µM. The inhibition result in the data set with Toxoplasma gondii [3] was “Active”. The inhibition result with Toxoplasma gondii [4] was “Active”. The selectivity ratio in data set [6] is 15.
Regarding `CC(C)=N/N=C1\NC(=O)CS1`, in the data set with Toxoplasma gondii [1], the IC50 worked out at 210 µM and the IC90 is 852 µM. For the same compound, the CC50 at 120 h in data set [2] was not below 320 µM. In addition, the inhibition entry in the data set on Toxoplasma gondii [5] was “Active”. Besides, the selectivity ratio in data set [6] was determined as 3. Moreover, the inhibition result in the data set with Toxoplasma gondii [8] was “inactive”.
On to `CCC/C(C)=N\N=C1/NC(=O)CS1`, for which, in the data set with Toxoplasma gondii [1], the IC50 stood at 262 µM and the 90% effect concentration (IC90) worked out at 1060 µM. For the same compound, in data set [2], the CC50 at 120 h is not below 320 µM. The inhibition entry in the data set on Toxoplasma gondii [5] was “Active”. In addition, the selectivity ratio in data set [6] was 2.
For `CCC(CC)=N/N=C1/SCC(=O)N1Cc1ccccc1`, in the data set with Toxoplasma gondii [1], the IC50 was 36 µM and the IC90 is 243 µM. For the same compound, the CC50 at 120 h in data set [2] was not below 320 µM. The inhibition result in the data set with Toxoplasma gondii [5] was “Active”. In data set [6], the selectivity ratio amounted to 16.
On the same counts, the results for `CCCC/C(CC)=N\N=C1/NC(=O)CS1` are 89 µM, 288 µM, not below 320 µM, “Active” and 6.
Turning to `C/C(=N/N=C1/SCC(=O)N1Cc1ccccc1)c1ccncc1`, in the data set on Toxoplasma gondii [1], the 50% inhibitory concentration (IC50) is 36 µM. Besides, the 90% effect concentration (IC90) in the data set on Toxoplasma gondii [1] came out at 103 µM. Also, the CC50 at 120 h in data set [2] is 183 µM. The inhibition result in the data set on Toxoplasma gondii [3], in the data set with Toxoplasma gondii [4] and in the data set with Toxoplasma gondii [5] was “Active” each time. For the same compound, the selectivity ratio in data set [6] is 5.
For `C/C(=N/N=C1\NC(=O)CS1)c1cc2ccccc2oc1=O`, in the data set with Toxoplasma gondii [1], the concentration for half-maximal inhibition (IC50) is 8 µM and the IC90 worked out at 49 µM. In addition, the CC50 at 120 h in data set [2] was not below 320 µM. Besides, the inhibition result in the data set on Toxoplasma gondii [3] is “Active”. For the same compound, the inhibition result with Toxoplasma gondii [4] is “Active”. Also, the selectivity ratio in data set [6] is 70.
`CC1CCC/C1=N/N=C1\NC(=O)CS1` (stereo unspecified): the IC50 with Toxoplasma gondii [1] was found to be 0.9 µM. For the same compound, the IC90 with Toxoplasma gondii [1] is 2 µM. The CC50 at 120 h in data set [2] turned out to be 35 µM. The inhibition entry in the data set with Toxoplasma gondii [3], in the data set with Toxoplasma gondii [4] and in the data set on Toxoplasma gondii [5] was “Active” each time. The selectivity ratio in data set [6] came out at 39.
In the case of `O=C1CS/C(=N/N=C\c2cccs2)N1Cc1ccccc1`, in the data set with Toxoplasma gondii [1], the IC50 is 270 µM and the IC90 is 1660 µM. Also, the CC50 at 120 h in data set [2] came out at 54 µM. The inhibition entry in the data set with Toxoplasma gondii [5] was “Active”. Moreover, in data set [6], the selectivity ratio is less than 1.
With `CC/C(C)=N\N=C1/NC(=O)CS1`, in the data set with Toxoplasma gondii [1], the IC50 is 133 µM and the IC90 is 1160 µM. For the same compound, the CC50 at 120 h in data set [2] was not below 320 µM. In addition, in the data set on Toxoplasma gondii [5], the inhibition result was “Active”. Also, in data set [6], the selectivity ratio stood at 4.
For `CC(C)(C)C1CCCC/C1=N/N=C1/SCC(=O)N1Cc1ccccc1` (stereo unspecified), in that order: 102 µM, 295 µM, not below 320 µM, “Active” and 6.
On the same counts, the results for `CC1CCCC/C1=N/N=C1/SCC(=O)N1Cc1ccccc1` (stereo unspecified) are 43 µM, 171 µM, not below 320 µM, “Active” and 13.
On the same counts, the results for `O=C1CS/C(=N/N=C2CCCCCCC2)N1Cc1ccccc1` are 43 µM, 508 µM, 205 µM, “Active” and 5.
For the compound `C/C(=N/N=C1/SCC(=O)N1Cc1ccccc1)c1ccco1`, in the data set with Toxoplasma gondii [1], the IC50 was found to be 76 µM and the IC90 was 212 µM. For the same compound, the CC50 at 120 h in data set [2] is not below 320 µM. Moreover, in the data set on Toxoplasma gondii [5], the inhibition result was “Active”. For the same compound, in data set [6], the selectivity ratio came out at 7.
As to `O=C1CS/C(=N/N=C\c2ccc3c(c2)OCO3)N1Cc1ccccc1`, in the data set on Toxoplasma gondii [1], the half-maximal inhibitory concentration (IC50) was 290 µM and the IC90 is 2140 µM. In addition, the CC50 at 120 h in data set [2] is not below 320 µM. Besides, the inhibition result in the data set with Toxoplasma gondii [5] is “Active”. For the same compound, the selectivity ratio in data set [6] was 2.
For `O=C1CSC(NN=C2CCCCCCC2)=N1`, in that order: 79 µM, 290 µM, 309 µM, “Active” and 4.
On the same counts, the results for `CC(C)=C/C(C)=N\N=C1\SCC(=O)N1Cc1ccccc1` are 23 µM, 186 µM, 67 µM, “Active” and 3.
Consider `CCC(CC)=N/N=C1\NC(=O)CS1`, for which, in the data set on Toxoplasma gondii [1], the IC50 is 126 µM and the IC90 was determined as 580 µM. In addition, the CC50 at 120 h in data set [2] was not below 320 µM. Moreover, the inhibition entry in the data set with Toxoplasma gondii [5] was “Active”. Further, in data set [6], the selectivity ratio was determined as 4.
Take `CCCC/C(CC)=N\N=C1\SCC(=O)N1Cc1ccccc1`: in the data set with Toxoplasma gondii [1], the half-inhibitory concentration (IC50) is 15 µM. In addition, in the data set with Toxoplasma gondii [1], the IC90 turned out to be 121 µM. In data set [2], the CC50 at 120 h is not below 320 µM. The inhibition entry with Toxoplasma gondii [3], in the data set with Toxoplasma gondii [4] and in the data set with Toxoplasma gondii [5] was “Active” each time. Moreover, the selectivity ratio in data set [6] is 37.
On to `C=CCC/C(C)=N\N=C1/NC(=O)CS1`, for which, in the data set with Toxoplasma gondii [1], the IC50 was 195 µM and the IC90 came to 2220 µM. The CC50 at 120 h in data set [2] is not below 320 µM. In addition, the inhibition entry with Toxoplasma gondii [5] is “Active”. Moreover, in data set [6], the selectivity ratio is 3.
For `CCCCC/C(C)=N\N=C1\SCC(=O)N1Cc1ccccc1`, in that order: 19 µM, 120 µM, 88 µM, “Active” and 5.
